Results taken from paper PMC10892935 (Viruses, 2024).
In brackets after ≈: the same amount, converted by molar mass. Where two headings read alike, the source gives them in different places.

Experiments:
FHV-1 [1] = test system: FHV-1; design: method as in earlier work; details: reported for CRFK cells; cited from earlier work
in vitro = details: cat
FHV-1 [2] = assay: Cytopathic effect (CPE) inhibition assay; details: for Anti-FHV-1: in vitro anti-FHV-1 effect in CRFK cells, √ / × (key not given); for EC50: Felid alphaherpesvirus 1, CRFK, 48 h
FHV-1 gB = FHV-1 gB (Feline herpesvirus 1, UniProt Q86665); assay: biochemical; format: binding, feline herpesvirus-1 (FHV-1); details: for koff: read-out: Kdis (rate of dissociation); for kon: read-out: Kon (rate of association); for Binding and dissociation kinetics in words: BLI, gB
gB = format: binding, feline herpesvirus-1 (FHV-1)
FHV-1 [3] = assay: Plaque reduction assay; format: cell-based, feline herpesvirus-1 (FHV-1); details: CRFK cells
FHV-1 [4] = assay: Fusion and entry assays with DIOC- and R18-labelled virus (confocal microscopy); format: cell-based, feline herpesvirus-1 (FHV-1); details: 10 MOI, CRFK cells; for Adsorption of DIOC-labelled FHV-1: 4 °C 2 h
FHV-1 [5] = assay: Time of drug addition assay with qPCR of viral nucleic acid copies; format: cell-based, feline herpesvirus-1 (FHV-1); details: for Inhibition of FHV-1 entry into host cells (virus entry assay): 4 °C pre-incubation then 37 °C, Saikosaponin B2 50 μg/mL; for FHV-1 nucleic acid copy numbers after drug pretreatment of cells: CRFK cells pretreated before infection, qPCR
CRFK cells = details: 48 h, CCK-8

For `Nc1ccn(C[C@@H](CO)OCP(=O)(O)O)c(=O)n1` [Cidofovir], the EC50 (FHV-1 [1]) is listed as 3.07 µg/mL (≈ 11 µM).

For `O=C(/C=C/c1ccc(O)c(O)c1)O[C@@H]1C[C@@](OC(=O)/C=C/c2ccc(O)c(O)c2)(C(=O)O)C[C@@H](O)[C@@H]1O` [Cynarine], the CC50 at 48 h (in vitro; CRFK cells) was 60.1 ± 1.86 µg/mL (≈ 116 µM), the Anti-FHV-1 (FHV-1 [2]) was “×” and the Kd (FHV-1 gB) was 8.41 µM. For the same compound, the koff (FHV-1 gB) was 0.00596 s⁻¹ and the kon (FHV-1 gB) was 709 M⁻¹ s⁻¹.

With `CC1OC(OC2CCC3(C)C(CCC4(C)C3C=CC3=C5CC(C)(C)CCC5(CO)C(O)CC34C)C2(C)CO)C(O)C(OC2OC(CO)C(O)C(O)C2O)C1O` (centres unmarked) [Saikosaponin B2] the CC50 at 48 h (in vitro; CRFK cells) was 197.5 ± 0.52 µg/mL (≈ 253 µM), the “Thermal stability (Tm) of gB” value (gB) was “altered the thermal stability of gB” and the “Inhibition of FHV-1-induced cytopathic effects and plaque formation” value (FHV-1 [3]) was “effective inhibitors”. The EC50 (FHV-1 [2]) was 13.5 µg/mL (≈ 17.3 µM), the Anti-FHV-1 (FHV-1 [2]) was “√” and the “Adsorption of DIOC-labelled FHV-1” value (FHV-1 [4]) was “inhibit the adsorption of FHV-1”. The “Entry of R18-labelled FHV-1” value (FHV-1 [4]; 4 °C 2 h then 37 °C 2 h) was “inhibited the entry of FHV-1”, the “Binding and dissociation kinetics in words” value (FHV-1 gB) was “rapid binding and dissociation” and the “Inhibition of FHV-1 entry into host cells (virus entry assay)” value (from here on “Inhibition … (virus entry assay)”) (FHV-1 [5]) was “exhibited inhibitory effects”. For the same compound, the “FHV-1 nucleic acid copy numbers after drug pretreatment of cells” value (shortened to “FHV-1 nucleic acid copy numbers”) (FHV-1 [5]) was “negligible changes” and the “Viral nucleic acid expression with drug treatment after infection” value (FHV-1 [5]; drug applied to CRFK cells infected with FHV-1, qPCR) was “remarkably significant difference”.

In the case of `Nc1nc2c(ncn2CCC(CO)CO)c(=O)[nH]1` [Penciclovir], the EC50 (FHV-1 [1]) is given as 3.50 µg/mL (≈ 13.8 µM).

In the case of `O=C(O)P(=O)(O)O` [Foscarnet], the EC50 (FHV-1 [1]) is listed as 44.71 µg/mL (≈ 355 µM).

For `Nc1nc2c(ncn2COCCO)c(=O)[nH]1` [Acyclovir], the EC50 (FHV-1 [1]) is given as 13.04 µg/mL (≈ 57.9 µM).

With `O=C(C=Cc1ccc(O)c(O)c1)OC1CC(O)(C(=O)O)CC(O)C1OC(=O)C=Cc1ccc(O)c(O)c1` (centres unmarked) [4,5-Dicaffeoylquinic acid] the CC50 at 48 h (in vitro; CRFK cells) was 54.5 ± 2.89 µg/mL (≈ 106 µM), the Anti-FHV-1 (FHV-1 [2]) was “×” and the Kd (FHV-1 gB) was 7.96 µM. The koff (FHV-1 gB) was 0.0652 s⁻¹ and the kon (FHV-1 gB) was 8180 M⁻¹ s⁻¹.

In the case of `O=c1c(O[C@@H]2O[C@H](CO)[C@H](O)[C@H](O)[C@H]2O)c(-c2ccc(O)c(O)c2)oc2cc(O)cc(O)c12` [Hyperoside], the CC50 at 48 h (in vitro) is reported as over 50 µg/mL, the Anti-FHV-1 (FHV-1 [2]) is reported as “×” and the Kd (FHV-1 gB) is reported as 23.9 µM. It also gave a koff (FHV-1 gB) of 0.00683 s⁻¹ and a kon (FHV-1 gB) of 286 M⁻¹ s⁻¹.

In the case of `O=C(O)c1cc(O)c2c(c1)[C@H]([C@H]1c3cc(C(=O)O)cc(O)c3C(=O)c3c(O[C@@H]4O[C@H](CO)[C@@H](O)[C@H](O)[C@H]4O)cccc31)c1cccc(O[C@@H]3O[C@H](CO)[C@@H](O)[C@H](O)[C@H]3O)c1C2=O` [Sennoside A], the CC50 at 48 h (in vitro) is reported as 131 ± 8.86 µg/mL (≈ 152 µM), the Anti-FHV-1 (FHV-1 [2]) is reported as “×” and the Kd (FHV-1 gB) is reported as under 1e-06 µM. It also gave a koff (FHV-1 gB) of under 1e-07 s⁻¹ and a kon (FHV-1 gB) of 1440 M⁻¹ s⁻¹.

In the case of `O=c1c(O[C@@H]2O[C@H](CO)[C@@H](O)[C@H](O)[C@H]2O)c(-c2ccc(O)c(O)c2)oc2cc(O)cc(O)c12` [Isoquercetin], the CC50 at 48 h (in vitro) is reported as 289 ± 5.69 µg/mL (≈ 623 µM), the Anti-FHV-1 (FHV-1 [2]) is reported as “×” and the Kd (FHV-1 gB) is reported as 73.3 µM. For the same compound, the koff (FHV-1 gB) was 0.0179 s⁻¹ and the kon (FHV-1 gB) was 245 M⁻¹ s⁻¹.

In the case of Ivermectin, the CC50 (CRFK cells) is reported as 1.81 ± 0.06 µg/mL and the Anti-FHV-1 (FHV-1 [2]) is reported as “×”.

In the case of `Nc1nc(O)c2ncn(COC(CO)CO)c2n1` [Ganciclovir], the EC50 (FHV-1 [1]) is listed as 1.33 µg/mL (≈ 5.21 µM).

In the case of `O=C1O[C@H]2[C@@H]3OC(=O)c4cc(O)c(O)c(O)c4-c4c(O)c(O)c5oc(=O)c6c(c(O)c(O)c7oc(=O)c4c5c76)-c4c(cc(O)c(O)c4O)C(=O)OC[C@H]3OC(O)[C@@H]2OC(=O)c2cc(O)c(O)c(O)c2-c2c1cc(O)c(O)c2O` (mixture of isomers) [Punicalagin], the CC50 at 48 h (in vitro) is reported as 3.32 ± 0.28 µg/mL, the “Thermal stability (Tm) of gB” value (gB) is reported as “altered the thermal stability of gB” and the “Inhibition of FHV-1-induced cytopathic effects and plaque formation” value (FHV-1 [3]) is reported as “effective inhibitors”. For the same compound, the EC50 (FHV-1 [2]) was 2.19 µg/mL, the Anti-FHV-1 (FHV-1 [2]) was “√” and the “Adsorption of DIOC-labelled FHV-1” value (FHV-1 [4]) was “inhibit the adsorption of FHV-1”. The Kd (FHV-1 gB) was under 1e-06 µM, the “Binding and dissociation kinetics in words” value (FHV-1 gB) was “rapid binding with no dissociation” and the koff (FHV-1 gB) was under 1e-07 s⁻¹. The kon (FHV-1 gB) was 8740 M⁻¹ s⁻¹, the “Inhibition … (virus entry assay)” value (FHV-1 [5]) was “reduced effectiveness in inhibiting virus infection” and the “FHV-1 nucleic acid copy numbers” value (FHV-1 [5]) was “negligible changes”.

For `O=C(O)[C@H]1O[C@@H](Oc2cc3oc(-c4ccc(O)cc4)cc(=O)c3c(O)c2O)[C@H](O)[C@@H](O)[C@@H]1O` [Scutellarin], the CC50 at 48 h (in vitro) was 185 ± 3.37 µg/mL (≈ 401 µM), the Anti-FHV-1 (FHV-1 [2]) was “×” and the Kd (FHV-1 gB) was 0.647 µM. It also gave a koff (FHV-1 gB) of 0.00875 s⁻¹ and a kon (FHV-1 gB) of 13500 M⁻¹ s⁻¹.

In the case of `O=C1OC[C@H]2OC(O)[C@H](O)[C@@H](O)[C@@H]2OC(=O)c2cc(O)c(O)c(O)c2-c2c(O)c(O)c3oc(=O)c4c(c(O)c(O)c5oc(=O)c2c3c54)-c2c1cc(O)c(O)c2O` (mixture of isomers) [Punicalin], the CC50 at 48 h (in vitro; CRFK cells) is reported as 7.65 ± 0.68 µg/mL, the “Thermal stability (Tm) of gB” value (gB) is reported as “altered the thermal stability of gB” and the “Inhibition of FHV-1-induced cytopathic effects and plaque formation” value (FHV-1 [3]) is reported as “effective inhibitors”. For the same compound, the EC50 (FHV-1 [2]) was 0.22 µg/mL, the Anti-FHV-1 (FHV-1 [2]) was “√” and the “Adsorption of DIOC-labelled FHV-1” value (FHV-1 [4]) was “inhibit the adsorption of FHV-1”. For the same compound, the Kd (FHV-1 gB) was under 1e-06 µM, the “Binding and dissociation kinetics in words” value (FHV-1 gB) was “rapid binding with no dissociation” and the koff (FHV-1 gB) was under 1e-07 s⁻¹. For the same compound, the kon (FHV-1 gB) was 12500 M⁻¹ s⁻¹, the “Inhibition … (virus entry assay)” value (FHV-1 [5]) was “reduced effectiveness in inhibiting virus infection” and the “FHV-1 nucleic acid copy numbers” value (FHV-1 [5]) was “negligible changes”.

In the case of `C=CCS[S+]([O-])CC=C` (centres unmarked) [Allicin], the CC50 at 48 h (in vitro) is reported as 84.9 ± 0.87 µg/mL (≈ 523 µM), the Anti-FHV-1 (FHV-1 [2]) is reported as “×” and the Kd (FHV-1 gB) is reported as 3530 µM. The koff (FHV-1 gB) was 0.00299 s⁻¹ and the kon (FHV-1 gB) was 0.846 M⁻¹ s⁻¹.

For `C[C@@H]1O[C@@H](O[C@@H]2[C@@H](O)[C@H](OCCc3ccc(O)c(O)c3)O[C@H](CO)[C@H]2OC(=O)/C=C/c2ccc(O)c(O)c2)[C@H](O)[C@H](O)[C@H]1O` [Verbascoside], the CC50 at 48 h (in vitro) was 79.6 ± 0.99 µg/mL (≈ 127 µM), the Anti-FHV-1 (FHV-1 [2]) was “×” and the Kd (FHV-1 gB) was 39.9 µM. It also gave a koff (FHV-1 gB) of 0.00729 s⁻¹ and a kon (FHV-1 gB) of 183 M⁻¹ s⁻¹.

In the case of `O=c1[nH]c(=O)n([C@H]2C[C@H](O)[C@@H](CO)O2)cc1I` [Idoxuridine], the EC50 (FHV-1 [1]) is given as 1.52 µg/mL (≈ 4.29 µM).

With `O=C1c2c(O)cc(O)cc2O[C@H](c2cc(O)c(O)c(O)c2)[C@H]1O` [Dihydromyricetin] the CC50 at 48 h (in vitro) was 3.22 ± 0.43 µg/mL (≈ 10.1 µM), the Anti-FHV-1 (FHV-1 [2]) was “×” and the Kd (FHV-1 gB) was 36.1 µM. The koff (FHV-1 gB) was 0.00506 s⁻¹ and the kon (FHV-1 gB) was 140 M⁻¹ s⁻¹.

For `O=C(O)[C@H]1O[C@@H](Oc2cc3oc(-c4ccccc4)cc(=O)c3c(O)c2O)[C@H](O)[C@@H](O)[C@@H]1O` [Baicalin], the CC50 at 48 h (in vitro) was 65.8 ± 2.12 µg/mL (≈ 147 µM), the Anti-FHV-1 (FHV-1 [2]) was “×” and the Kd (FHV-1 gB) was 41.6 µM. For the same compound, the koff (FHV-1 gB) was 0.922 s⁻¹ and the kon (FHV-1 gB) was 1090 M⁻¹ s⁻¹.

With `COc1ccc(-c2cc(=O)c3c(O)cc(O[C@@H]4O[C@H](CO[C@@H]5O[C@@H](C)[C@H](O)[C@@H](O)[C@H]5O)[C@@H](O)[C@H](O)[C@H]4O)cc3o2)cc1O` [Diosmin] the CC50 at 48 h (in vitro) was 449.75 ± 0.21 µg/mL (≈ 739 µM), the Anti-FHV-1 (FHV-1 [2]) was “×” and the Kd (FHV-1 gB) was 90.8 µM. It also gave a koff (FHV-1 gB) of 0.034 s⁻¹ and a kon (FHV-1 gB) of 374 M⁻¹ s⁻¹.
